From US8487093B2, “β-lactamase inhibitors” (Merck Sharp & Dohme Corp., priority 2008, dated 2013)
Read-outs that look alike come from different tables or passages of the source.

How the values were obtained:
AmpC (P. aeruginosa) = AmpC (P. aeruginosa) (Pseudomonas aeruginosa (strain ATCC 15692 / DSM 22644 / CIP 104116 / JCM 14847 / LMG 12228 / 1C / PRS 101 / PAO1), UniProt P24735); test: biochemical
Description: The Class C enzyme activities were measured in the presence of the test inhibitor in spectrophotometric assay against the commercially available substrate, nitrocefin. The enzyme AmpC (P. aeruginosa.), and the substrate, were dissolved in 100 mM KH2PO4 buffer (pH 7). The buffer also contains 0.005% BSA. The test inhibitor was dissolved in DMSO and diluted 1:20 in the assay, resulting in a final concentration range of 50 μM to 0.0002 μM. In a 96-well microplate, the test inhibitor was incubated with the beta-lactamase enzyme for 40 minutes at ambient temperature, the substrate solution was added, and the incubation continued for another 40 minutes. […] The IC50 value was determined from semi logarithmic plots of enzyme inhibition versus inhibitor concentration, with a curve generated using a 4-parameter fit.

KPC-2 (K. pneumoniae) = KPC-2 (K. pneumoniae) (Klebsiella pneumoniae, UniProt Q9F663); test: biochemical
[1] = Table 3, read-out: P.a. AmpC IC50
[2] = Table 3, read-out: K.p. KPC-2 IC50

KPC-2 (K. pneumoniae), sequence (Q9F663 25-293 limits assumed): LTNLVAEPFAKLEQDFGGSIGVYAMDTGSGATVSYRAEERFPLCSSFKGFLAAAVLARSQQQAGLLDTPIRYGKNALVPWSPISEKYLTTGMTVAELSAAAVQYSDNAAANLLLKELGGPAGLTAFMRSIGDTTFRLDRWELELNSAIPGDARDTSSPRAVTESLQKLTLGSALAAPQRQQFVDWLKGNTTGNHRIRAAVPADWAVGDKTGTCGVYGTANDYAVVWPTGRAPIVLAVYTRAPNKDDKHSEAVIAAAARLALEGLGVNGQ
AmpC (P. aeruginosa), sequence (P24735 27-397): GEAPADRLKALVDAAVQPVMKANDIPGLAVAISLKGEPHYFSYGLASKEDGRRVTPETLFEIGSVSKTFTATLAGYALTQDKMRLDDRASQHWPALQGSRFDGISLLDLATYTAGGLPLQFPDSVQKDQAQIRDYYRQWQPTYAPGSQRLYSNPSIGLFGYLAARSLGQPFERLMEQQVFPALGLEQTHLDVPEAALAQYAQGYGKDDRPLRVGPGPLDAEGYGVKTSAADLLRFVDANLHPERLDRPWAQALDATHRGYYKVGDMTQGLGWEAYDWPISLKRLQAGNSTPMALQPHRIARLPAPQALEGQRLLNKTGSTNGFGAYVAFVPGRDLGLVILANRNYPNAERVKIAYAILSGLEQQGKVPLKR

| Compound | IC50 (AmpC (P. aeruginosa); [1]) | IC50 (KPC-2 (K. pneumoniae); [2]) | also measured |
| --- | --- | --- | --- |
| O=C(Nc1cnccn1)[C@@H]1CC[C@@H]2CN1C(=O)N2OS(=O)(=O)O [Example 83] | 6 nM | 58 nM |  |
| NCc1ccccc1NC(=O)[C@@H]1CC[C@@H]2CN1C(=O)N2OS(=O)(=O)O [Example 59] |  | 109 nM | IC50 (AmpC (P. aeruginosa)): 292 nM |
| O=C(O[C@@H]1CNC[C@@H]1F)[C@@H]1CC[C@@H]2CN1C(=O)N2OS(=O)(=O)O [Example 103] |  | 3 nM | IC50 (AmpC (P. aeruginosa)): 39 nM |
| O=C(O[C@H]1CCNC1)[C@@H]1CC[C@@H]2CN1C(=O)N2OS(=O)(=O)O [Example 95] |  | 21 nM | IC50 (AmpC (P. aeruginosa)): 210 nM |
| O=C(Nc1nccs1)[C@@H]1CC[C@@H]2CN1C(=O)N2OS(=O)(=O)O [Example 88] | 1.8 nM | 36 nM |  |
| O=C(Nc1nc2c(s1)CNCC2)[C@@H]1CC[C@@H]2CN1C(=O)N2OS(=O)(=O)O [Example 89] | 10 nM | 39 nM |  |
| NCc1ccnc(NC(=O)[C@@H]2CC[C@@H]3CN2C(=O)N3OS(=O)(=O)O)c1 [Example 76] | 2 nM | 1300 nM |  |
| O=C(N[C@@H]1CNC[C@@H]1O)[C@@H]1CC[C@@H]2CN1C(=O)N2OS(=O)(=O)O [Example 30] | 2250 nM | 520 nM |  |
| N[C@@H]1CCN(C(=O)[C@@H]2CC[C@@H]3CN2C(=O)N3OS(=O)(=O)O)C1 [Example 54] | 840 nM | 3200 nM |  |
| O=C(NC[C@H]1CNCCCO1)[C@@H]1CC[C@@H]2CN1C(=O)N2OS(=O)(=O)O [Example 43] |  |  | IC50 (AmpC (P. aeruginosa)): 15 nM; IC50 (KPC-2 (K. pneumoniae); K.p. KPC-2 IC50, Table 3): 100 nM |
| O=C(OCC1CNCCCO1)[C@@H]1CC[C@@H]2CN1C(=O)N2OS(=O)(=O)O (stereo partly drawn) [Example 114] | 340 nM | 11 nM |  |
| O=C(Nc1ccc2c(c1)CNC2)[C@@H]1CC[C@@H]2CN1C(=O)N2OS(=O)(=O)O [Example 65] | 16 nM | 60 nM |  |
| CO[C@H]1CNCC[C@H]1NC(=O)[C@@H]1CC[C@@H]2CN1C(=O)N2OS(=O)(=O)O [Example 26] |  |  | IC50 (AmpC (P. aeruginosa)): 120 nM; IC50 (KPC-2 (K. pneumoniae); K.p. KPC-2 IC50, Table 3): 290 nM |
| O=C([C@@H]1CC[C@@H]2CN1C(=O)N2OS(=O)(=O)O)N1CCNCC1 [Example 51] | 2200 nM | 520 nM |  |
| O=C(Nc1ccc2c(c1)CCNC2)[C@@H]1CC[C@@H]2CN1C(=O)N2OS(=O)(=O)O [Example 16, (2S,5R)-7-Oxo-6-(sulfooxy)-N-(1,2,3,4-tetrahydroisoquinolin-6-yl)-1,6-diazabicyclo[3.2.1]octane-2-carboxamide] |  | 19 nM | IC50 (AmpC (P. aeruginosa)): 14 nM |
| O=C(Nc1cccc(C2CCNCC2)n1)[C@@H]1CC[C@@H]2CN1C(=O)N2OS(=O)(=O)O [Example 79] | 270 nM | 24 nM |  |
| O=C(OC1CNC1)[C@@H]1CC[C@@H]2CN1C(=O)N2OS(=O)(=O)O [Example 96] | 600 nM | 18 nM |  |
| CN1CCN=C1NC(=O)[C@@H]1CC[C@@H]2CN1C(=O)N2OS(=O)(=O)O [Example 87] | 200 nM | 840 nM |  |
| O=C(O[C@H]1CCCNCC1)[C@@H]1CC[C@@H]2CN1C(=O)N2OS(=O)(=O)O [Example 91] | 83 nM | 6 nM |  |
| NCc1ccc(NC(=O)[C@@H]2CC[C@@H]3CN2C(=O)N3OS(=O)(=O)O)nc1 [Example 77] | 3 nM | 42 nM |  |
| O=C(NC1CCNC1)[C@@H]1CC[C@@H]2CN1C(=O)N2OS(=O)(=O)O (stereo in doubt) [Example 14, (2S,5R)-7-oxo-N-[(3R)-pyrrolidin-3-yl]-6-(sulfooxy)-1,6-diazabicyclo[3.2.1]octane-2-carboxamide] | 110 nM |  | IC50 (KPC-2 (K. pneumoniae); K.p. KPC-2 IC50, Table 3): 355 nM |

| Compound | IC50 (AmpC (P. aeruginosa); [1]) | IC50 (KPC-2 (K. pneumoniae); [2]) | also measured |
| --- | --- | --- | --- |
| O=C(O[C@@H]1CCNC1)[C@@H]1CC[C@@H]2CN1C(=O)N2OS(=O)(=O)O [Example 94] |  | 40 nM | IC50 (AmpC (P. aeruginosa)): 3000 nM |
| O=C(O)c1ccc(NC(=O)[C@@H]2CC[C@@H]3CN2C(=O)N3OS(=O)(=O)O)cc1 [Example 67] | 11 nM | 10 nM |  |
| O=C(O[C@H]1CNOC1)[C@@H]1CC[C@@H]2CN1C(=O)N2OS(=O)(=O)O [Example 107] | 39 nM | 11 nM |  |
| O=C(O[C@H]1CNC[C@@H]1F)[C@@H]1CC[C@@H]2CN1C(=O)N2OS(=O)(=O)O [Example 106] |  | 10 nM | IC50 (AmpC (P. aeruginosa)): 200 nM |
| O=C(Nc1ccc(C2CCNCC2)cn1)[C@@H]1CC[C@@H]2CN1C(=O)N2OS(=O)(=O)O [Example 17, (2S,5R)-7-Oxo-N-(5-piperidin-4-ylpyridin-2-yl)-6-(sulfooxy)-1,6-diazabicyclo[3.2.1]octane-2-carboxamide] | 6 nM |  |  |
| O=C(N[C@@H]1CNC[C@H]1O)[C@@H]1CC[C@@H]2CN1C(=O)N2OS(=O)(=O)O [Example 29] | 2500 nM | 250 nM |  |
| O=C(NCC1(F)CNC1)[C@@H]1CC[C@@H]2CN1C(=O)N2OS(=O)(=O)O [Example 37] | 40 nM | 120 nM |  |
| O=C(Nc1ccnc(N2CCNCC2)n1)[C@@H]1CC[C@@H]2CN1C(=O)N2OS(=O)(=O)O [Example 85] | 260 nM | 20 nM |  |
| O=C(Nc1ccncn1)[C@@H]1CC[C@@H]2CN1C(=O)N2OS(=O)(=O)O [Example 84] | 0.8 nM | 55 nM |  |
| O=C(OCC1CCNCC1)[C@@H]1CC[C@@H]2CN1C(=O)N2OS(=O)(=O)O [Example 18, Piperidin-4-ylmethyl(2S,5R)-7-oxo-6-(sulfooxy)-1,6-diazabicyclo[3.2.1]octane-2-carboxylate] | 180 nM | 10 nM |  |
| O=C(NC1CCCNC1)[C@@H]1CC[C@@H]2CN1C(=O)N2OS(=O)(=O)O (stereo partly drawn) [Example 19a] | 64 nM | 480 nM |  |
| O=C(N[C@H]1CCCNC[C@H]1F)[C@@H]1CC[C@@H]2CN1C(=O)N2OS(=O)(=O)O [Example 36] | 18 nM | 130 nM |  |
| N[C@H]1CCN(C(=O)[C@@H]2CC[C@@H]3CN2C(=O)N3OS(=O)(=O)O)C1 [Example 55] | 1400 nM | 1500 nM |  |
| O=C(NCC1CCCCN1)[C@@H]1CC[C@@H]2CN1C(=O)N2OS(=O)(=O)O (stereo partly drawn) [Example 39] | 530 nM | 190 nM |  |
| O=C(Nc1ccc(CN2CCCC2)cc1)[C@@H]1CC[C@@H]2CN1C(=O)N2OS(=O)(=O)O [Example 63] | 22 nM | 85 nM |  |
| CC(=O)Oc1ccc(C(=O)NCC(CNC(=O)c2ccc(OC(C)=O)c(OC(C)=O)c2)OC(=O)[C@@H]2CC[C@@H]3CN2C(=O)N3OS(=O)(=O)O)cc1OC(C)=O [Example 117] | 61 nM | 12 nM |  |
| O=C(O[C@@H]1CCNC[C@@H]1F)[C@@H]1CC[C@@H]2CN1C(=O)N2OS(=O)(=O)O [Example 97] | 49 nM | 26 nM |  |
| O=C(NCCN1CCNCC1)[C@@H]1CC[C@@H]2CN1C(=O)N2OS(=O)(=O)O [Example 46] | 42 nM | 96 nM |  |
| NCC1CCCCN1C(=O)[C@@H]1CC[C@@H]2CN1C(=O)N2OS(=O)(=O)O (stereo partly drawn) [Example 49] | 7500 nM | 780 nM |  |
| CC1(C)[C@H](C(=O)O)N2C(=O)C[C@H]2S1(=O)=O [Sulbactam, sulbactam, reference compound] |  |  | IC50 (AmpC (P. aeruginosa); Table 2, read-out: P.a. AmpC IC50): 17000 nM; IC50 (KPC-2 (K. pneumoniae); Table 2, read-out: K.p. KPC-2 IC50): 33000 nM |
